Experiment in all cases: fluorescence polarization competition with fluorescent BOP probe
Format in all cases: binding

The target in assay [1] is T1, integrin α11β1 ectodomain (Homo sapiens, UniProt P05556+Q9UKX5).
T1 construct: gene ITGA11; ectodomain heterodimer; continuous transcript alpha-GGGS-P2A-beta; alpha with ACID coil and C-terminal StrepII tag, beta with BASE coil and His tag; Expi293 cells; beta1 borders printed for the separate vector

The target in another assay is T2, integrin α3β1 (Homo sapiens, UniProt P05556+P26006).
T2 construct: gene ITGA3; purchased recombinant heterodimer (R&D Systems), extracellular domains

Assay [2] addresses T3, integrin α10β1 ectodomain (Homo sapiens, UniProt O75578+P05556).
T3 construct: gene ITGA10; ectodomain heterodimer; continuous transcript alpha-GGGS-P2A-beta; alpha with ACID coil and C-terminal StrepII tag, beta with BASE coil and His tag; Expi293 cells; beta1 borders printed for the separate vector

A further assay concerns the target T4, integrin α1β1 ectodomain (Homo sapiens, UniProt P05556+P56199).
T4 construct: gene ITGA1; ectodomain heterodimer; alpha with ACID coil and C-terminal StrepII tag, beta with BASE coil and His tag; Expi293 cells, separate pcDNA3.4 vectors

The target of another assay is T5, integrin α2β1 ectodomain (Homo sapiens, UniProt P05556+P17301).
T5 construct: gene ITGA2; ectodomain heterodimer; alpha with ACID coil and C-terminal StrepII tag, beta with BASE coil and His tag; Expi293 cells, separate pcDNA3.4 vectors

Here are results for 1 compound from PMC10404678, “A recombinant technique for mapping functional sites of heterotrimeric collagen helices: Collagen IV CB3 fragment as a prototype for integrin binding” (The Journal of Biological Chemistry, 2023).

T4 sequence (P56199 29-1143): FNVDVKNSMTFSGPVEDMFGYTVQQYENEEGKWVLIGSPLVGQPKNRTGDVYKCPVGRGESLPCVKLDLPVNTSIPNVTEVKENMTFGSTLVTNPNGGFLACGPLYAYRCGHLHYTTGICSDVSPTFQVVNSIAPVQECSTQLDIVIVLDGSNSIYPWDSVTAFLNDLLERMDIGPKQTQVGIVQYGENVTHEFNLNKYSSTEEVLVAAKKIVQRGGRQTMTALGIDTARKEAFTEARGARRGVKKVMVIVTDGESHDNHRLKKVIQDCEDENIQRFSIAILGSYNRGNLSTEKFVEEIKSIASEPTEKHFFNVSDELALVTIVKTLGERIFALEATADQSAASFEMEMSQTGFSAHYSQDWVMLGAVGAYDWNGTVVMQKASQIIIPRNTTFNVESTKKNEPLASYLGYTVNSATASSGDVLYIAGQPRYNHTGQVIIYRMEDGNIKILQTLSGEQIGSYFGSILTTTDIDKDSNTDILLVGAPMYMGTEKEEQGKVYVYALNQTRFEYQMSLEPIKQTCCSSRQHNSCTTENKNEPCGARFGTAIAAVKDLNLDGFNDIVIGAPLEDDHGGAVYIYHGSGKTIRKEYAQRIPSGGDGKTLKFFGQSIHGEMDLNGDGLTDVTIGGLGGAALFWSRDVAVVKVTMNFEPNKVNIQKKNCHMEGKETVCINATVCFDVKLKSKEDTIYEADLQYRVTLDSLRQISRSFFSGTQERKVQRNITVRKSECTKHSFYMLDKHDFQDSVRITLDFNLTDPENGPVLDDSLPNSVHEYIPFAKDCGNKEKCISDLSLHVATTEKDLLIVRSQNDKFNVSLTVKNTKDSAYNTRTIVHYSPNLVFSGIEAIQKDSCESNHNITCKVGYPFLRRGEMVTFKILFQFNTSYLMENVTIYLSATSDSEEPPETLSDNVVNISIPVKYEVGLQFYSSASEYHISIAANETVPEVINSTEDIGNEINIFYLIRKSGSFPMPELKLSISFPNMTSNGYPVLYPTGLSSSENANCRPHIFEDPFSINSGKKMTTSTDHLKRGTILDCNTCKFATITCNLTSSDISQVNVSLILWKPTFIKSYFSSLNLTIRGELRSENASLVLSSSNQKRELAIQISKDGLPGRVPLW
T4 sequence (P05556 21-728): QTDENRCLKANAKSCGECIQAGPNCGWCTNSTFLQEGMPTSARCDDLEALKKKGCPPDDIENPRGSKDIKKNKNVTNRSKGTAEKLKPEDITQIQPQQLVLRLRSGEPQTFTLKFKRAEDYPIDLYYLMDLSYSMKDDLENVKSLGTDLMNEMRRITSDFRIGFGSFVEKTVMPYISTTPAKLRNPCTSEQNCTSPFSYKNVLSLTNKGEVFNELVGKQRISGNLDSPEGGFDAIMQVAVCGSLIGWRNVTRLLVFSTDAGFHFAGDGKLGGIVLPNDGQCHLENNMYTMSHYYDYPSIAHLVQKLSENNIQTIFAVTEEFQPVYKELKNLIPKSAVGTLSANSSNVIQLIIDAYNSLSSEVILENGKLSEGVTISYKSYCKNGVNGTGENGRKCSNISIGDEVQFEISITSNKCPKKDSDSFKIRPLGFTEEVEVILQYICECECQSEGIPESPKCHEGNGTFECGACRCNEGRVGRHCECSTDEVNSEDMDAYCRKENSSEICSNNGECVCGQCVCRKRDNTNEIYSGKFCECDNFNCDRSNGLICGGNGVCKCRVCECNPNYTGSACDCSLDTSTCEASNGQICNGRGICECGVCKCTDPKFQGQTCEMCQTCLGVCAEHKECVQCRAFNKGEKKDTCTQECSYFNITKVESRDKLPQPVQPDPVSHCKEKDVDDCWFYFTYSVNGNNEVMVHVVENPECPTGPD
T2 sequence (P26006 33-872 limits assumed): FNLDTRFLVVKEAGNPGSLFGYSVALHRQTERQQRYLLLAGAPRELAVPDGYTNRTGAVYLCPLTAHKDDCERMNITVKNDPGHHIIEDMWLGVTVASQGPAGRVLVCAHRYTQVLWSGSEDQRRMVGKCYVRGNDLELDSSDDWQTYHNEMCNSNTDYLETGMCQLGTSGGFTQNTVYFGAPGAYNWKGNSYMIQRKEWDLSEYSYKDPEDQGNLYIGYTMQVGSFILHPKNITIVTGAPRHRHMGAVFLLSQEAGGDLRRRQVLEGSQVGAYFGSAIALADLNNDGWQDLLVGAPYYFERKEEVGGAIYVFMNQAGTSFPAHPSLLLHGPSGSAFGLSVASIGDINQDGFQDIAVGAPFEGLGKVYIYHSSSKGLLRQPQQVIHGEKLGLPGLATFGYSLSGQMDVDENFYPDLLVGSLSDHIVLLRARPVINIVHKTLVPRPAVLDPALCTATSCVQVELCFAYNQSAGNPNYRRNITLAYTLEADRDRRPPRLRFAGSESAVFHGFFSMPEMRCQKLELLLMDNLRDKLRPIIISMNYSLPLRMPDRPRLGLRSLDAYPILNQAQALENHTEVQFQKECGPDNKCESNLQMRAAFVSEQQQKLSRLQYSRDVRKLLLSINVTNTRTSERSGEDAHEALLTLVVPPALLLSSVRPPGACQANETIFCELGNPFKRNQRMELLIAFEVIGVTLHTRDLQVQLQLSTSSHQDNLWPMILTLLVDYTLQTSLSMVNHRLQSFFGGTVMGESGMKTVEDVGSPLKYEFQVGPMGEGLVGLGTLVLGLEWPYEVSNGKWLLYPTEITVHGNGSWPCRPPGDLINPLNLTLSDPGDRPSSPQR
T2 sequence (P26006 876-991 limits assumed): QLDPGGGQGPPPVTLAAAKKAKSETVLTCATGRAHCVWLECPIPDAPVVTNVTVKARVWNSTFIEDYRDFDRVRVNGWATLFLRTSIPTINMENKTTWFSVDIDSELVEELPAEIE
T2 sequence (P05556 21-728 limits assumed): as the sequence (P05556 21-728) above
T1 sequence (Q9UKX5 23-1139): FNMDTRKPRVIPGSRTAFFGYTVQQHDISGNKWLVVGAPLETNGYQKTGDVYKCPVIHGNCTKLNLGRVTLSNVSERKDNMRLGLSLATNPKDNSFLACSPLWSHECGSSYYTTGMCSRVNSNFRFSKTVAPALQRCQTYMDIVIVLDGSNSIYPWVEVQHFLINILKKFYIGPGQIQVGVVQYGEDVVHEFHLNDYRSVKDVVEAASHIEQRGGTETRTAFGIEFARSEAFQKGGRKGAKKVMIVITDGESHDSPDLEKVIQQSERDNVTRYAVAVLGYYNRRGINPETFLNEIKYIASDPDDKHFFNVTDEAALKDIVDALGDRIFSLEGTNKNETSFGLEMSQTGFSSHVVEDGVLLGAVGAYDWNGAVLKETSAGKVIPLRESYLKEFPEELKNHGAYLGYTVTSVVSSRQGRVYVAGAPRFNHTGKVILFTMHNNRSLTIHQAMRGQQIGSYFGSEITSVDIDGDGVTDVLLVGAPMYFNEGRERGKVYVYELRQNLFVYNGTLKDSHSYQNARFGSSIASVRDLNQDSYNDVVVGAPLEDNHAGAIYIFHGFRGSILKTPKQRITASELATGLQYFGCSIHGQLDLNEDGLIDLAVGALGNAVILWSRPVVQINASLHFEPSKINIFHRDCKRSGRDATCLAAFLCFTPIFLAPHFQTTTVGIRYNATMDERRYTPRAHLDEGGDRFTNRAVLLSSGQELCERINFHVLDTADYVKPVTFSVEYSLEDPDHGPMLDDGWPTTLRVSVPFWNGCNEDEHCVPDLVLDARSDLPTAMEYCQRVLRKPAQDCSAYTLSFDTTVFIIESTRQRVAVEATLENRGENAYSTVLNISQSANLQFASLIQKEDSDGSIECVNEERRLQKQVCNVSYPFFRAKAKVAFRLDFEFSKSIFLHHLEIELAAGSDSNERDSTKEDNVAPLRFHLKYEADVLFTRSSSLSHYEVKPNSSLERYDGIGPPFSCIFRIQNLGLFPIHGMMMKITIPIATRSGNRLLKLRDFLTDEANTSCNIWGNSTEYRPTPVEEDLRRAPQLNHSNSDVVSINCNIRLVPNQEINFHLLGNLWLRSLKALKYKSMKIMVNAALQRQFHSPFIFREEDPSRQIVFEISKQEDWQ
T1 sequence (P05556 21-728): as the sequence (P05556 21-728) above

For the compound `O=C(O)[C@H](Cc1ccc(OC(=O)N2CCCC2)cc1)NC(=O)[C@@H]1CCCN1S(=O)(=O)c1ccccc1` [BOP, N-(Benzenesulfonyl)-L-prolyl-L-O-(1-pyrrolidinylcarbonyl)tyrosine], the IC50 in assay [1] turned out to be 0.118 µM; at integrin α3β1, 0.0312 µM; in assay [2] it was 0.0253 µM; on integrin α1β1 ectodomain, 0.0807 µM; on integrin α2β1 ectodomain, 0.0162 µM.

A word on the IC50: it is the point on the concentration scale where inhibition reaches its midpoint. The low end stands for greater potency in that assay, the high end for weaker potency in that assay.
